Experimental data published in patent publication US8143228B2, “Agents capable of downregulating an MSF-A dependent HIF-1α and use thereof in cancer treatment” (Medical Research Fund of Tel Aviv Sourasky Medical Center, priority 2004, dated 2012).
Where a SMILES comes first, the peptide text is derived from it. The star is where a group is joined. Cbz = O=C(OCc1ccccc1)*

Test system: HIF-1α and Ub-HIF-1α
Test: Proteasome inhibition and HIF-1α ubiquitination, Western blot
Format: cell-based
Conditions: PC-3-Neo cells, 4 hours, 5 and 20 μM
Description: FIGS. 19a-b are Western blot analyses depicting the effect of proteasome inhibition on HIF-1α (FIG. 19a) or actin (FIG. 19b) expression levels in PC-3-MSF-A or PC-3-Neo cells. PC-3-Neo (lanes 1-3) and PC-3-MSF-A (lanes 4-6) cells were treated for 4 hours with either 0.1 DMSO (lanes 1 and 4) or with 5 (lanes 2 and 5) and 20 (lanes 3 and 6) μM MG-132. Whole cell lysates were prepared and equal amounts of protein from each cell lysate were resolved by SDS-PAGE, transferred and immunoblotted with antibodies against HIF-1α (FIG. 19a) and actin (FIG. 19b). Ub-HIF-1α points to ubiquitinated HIF-1α protein species.
FIGS. 20a-b are Western blot analyses of HIF-1α immunoprecipitates depicting the expression level of HIF-1α (FIG. 20a) and ubiquitin (FIG. 20b) in PC-3-Neo and PC-3-MSF-A cells. PC-3-Neo (lanes 1-2) and PC-3-MSF-A (lanes 3-4) cells were treated for 4 hours with either 0.1 DMSO (lanes 1 and 3) or with 10 μM MG-132 (lanes 2 and 4). Whole cell lysates were prepared and subjected to immunoprecipitation (IP) with HIF-1α antibody. Immunoprecipitates were resolved on SDS-PAGE and immunoblotted (IB) with HIF-1α (FIG. 20a) and ubiquitin (FIG. 20b) antibodies. Ub-HIF-1α points to ubiquitinated HIF-1α protein species.
To study the ubiquitination of the endogenous HIF-1α in cells over-expressing MSF-A protein, the proteasome inhibitor MG-132 was used. […]

CC(C)C[C@@H](C=O)NC(=O)[C@H](CC(C)C)NC(=O)[C@H](CC(C)C)NC(=O)OCc1ccccc1 [MG-132] (Cbz-Leu-Leu-Leu-aldehyde) was tested, and the “expression of HIF-1α and Ub-HIF-1α” value was “induced the expression of HIF-1α and Ub-HIF-1α”.
